# From patent US12564578B2, “Collagen P4H1 inhibitor and its use” (University of Kentucky Research Foundation, priority 2019, dated 2026)
# “Also recorded” adds a separate entry of the source. Read-outs that look alike come from different tables or passages of the source.
# Columns and labels:
# [1] = target: T1, human C-P4H1 (Homo sapiens, UniProt P13674); assay: Human C-P4H1 activity measured with Succinate-Glo Hydroxylase assay (also high-throughput screening); assay type: biochemical; conditions: for inhibition of C-P4H1 activity (luminescence): different concentrations, 200 nM C-P4H1
# T1 construct: made in house; host or cells: HEK-293FT
# Protocol: Human CP4H1 activity Assays were carried out at room temperature in 10 mM HEPES buffer containing 10 mM NaCl, pH 7.4. […] FeSO4 was prepared freshly in 10 mM HCl prior to each time use. Following 1 hour reaction, the reaction solution was subjected to Hydroxyproline Colorimetric Assay and Succinate-Glo™ Hydroxylase assay respectively.
# (§1) Succinate-Glo™ Hydroxylase assay was ran following the protocol of Succinate-Glo™ JmjC Demethylase/Hydroxylase Assay (Promega, V7991). Briefly, following the human CP4H1 assay, 10 μL Succinate Detection Reagent I was added, including the enzymes 3-oxoacid CoA-transferase (SCOT) and succinyl CoA ligase (SCS), and acetoacetyl-CoA. See, TM488 Technical Manual and U.S. Pat. No. 9,677,117 for “Bioluminescent Succinate Detection Assay,” issued Jun. 13, 2017, assigned to Promega Corporation. Mix assay plate with a plate shaker for 30 seconds, and incubate at room temperature for 60 minutes. Add 20 μl of Succinate Detection Reagent II, including the enzyme luciferase, to each well of the assay plate to generate light from the ATP. See, Id. Mix assay plate with a plate shaker for 30 seconds, and incubate at room temperature for 10 minutes. Measure the luminescence with a plate-reading luminometer (BioTek).
# […] Then mix with peptide substrate (GlyProProGly(SEQ ID NO:1)OEt), 500 μM), FeSO4 (50 μM), catalase (0.1 mg/mL), ascorbate (2 mM), and α-ketoglutarate (100 μM) to react 1 hour at room temperature. The reaction volume was usually 10 μL. After the reaction, Succinate-Glo™ Hydroxylase assay was conducted in the corresponding 96-well or 384-well plate. 50 μM DHB was set as a positive control in each plate.
# [2] = system: collagen hydroxylation in chicken tendon cells; conditions: collagen hydroxylation assay, doi: 10.1042/bj2610127, read-out: IC50 reported in previous research; cited from earlier work
# [3] = Succinate-Glo Hydroxylase assay in the absence of C-P4H1 (counter test); assay type: biochemical; conditions: no C-P4H1 in the reaction
# Protocol: as §1
# To further evaluate reliability of the Succinate-Glo™ assay, varied concentration of peptide substrate GPPG (FIG. 3A) and hydroxyl donor α-KG (FIG. 3B) were tested in the hydroxylation reaction, respectively. Increased concentration of GPPG and α-KG induced luminescence assay in a dose dependent manner. DHB has been identified as a C-P4Hs' inhibitor^35. To determine whether this assay can evaluate c-P4H1 inhibitor's activity, C-P4H1 was incubated with different concentration of DHB for 30 min at 4° C., and then the hydroxylation reaction and the bioluminescence-based assay were performed. […] The IC50 was detected at around 20 μM, which is much lower than the IC50 value of 0.1 mM reported in the previous research with the collagen hydroxylation assay in the chicken tendon cells (doi: 10.1042/bj2610127); this is probably due to the sensitivity difference between two methods. In the absence of C-P4H1, DHB had little effect on the Succinate-Glo™ assay, indicating the inhibitory effect is specific on the prolyl hydroxylation reaction (FIG. 3D).
# [4] = system: HS-578T cells; assay: 3D culture assay, invasive branching; assay type: cell-based; conditions: 10 μM and 20 μM, 24 hours
# Protocol: (§2) 3D laminin-rich extracellular matrix (3D lrECM) on-top cultures were prepared by trypsinization of cells from tissue culture plastic^25. Growth Factor Reduced BD Matrigel™ was plated on the bottom of the cell culture dish. MDA-MB-231 and HS-578 cells were seeded on the top of the matrigel layer, and additional medium containing 10% Matrigel was added on the top.
# (§3) All the 3D culture assay images were acquired by Nikon microscope and were quantified with the Nikon analysis software. Results are reported as mean±S.E.M; the significance of difference was assessed by independent Student's t-test. P<0.05 represents statistical significance and P<0.01 represents sufficiently statistical significance. All reported P values were 2-tailed.
# (§4) It has been shown that silence of P4HAs suppress invasive tumor growth in three-dimensional (3D) tissue culture model^19,25. 3D culture model has been widely used to evaluate drug effect^38. To further evaluate the inhibitory ability of these chemicals in tumor progression, triple-negative breast cancer cell lines, MDA-MB-231 cells and HS-578T cells were treated with Silodosin and Ticlopidine in 3D culture^39. […] Invasive branching structure of cancer cells in 3D culture is associated with tumor invasion and aggressive phenotypes^15, 19, 25. […]
# [5] = system: HS-578T cells; assay: Western blot of type I collagen in conditioned medium of treated cells; assay type: cell-based; conditions: 48 hours, 10 μM and 20 μM
# Protocol: Chemical treated Hs578 cells were lysed in 2% sodium dodecyl sulfate (SDS) in phosphate-buffered saline (PBS) buffer containing phosphatase and protease inhibitor cocktails (EMD Millipore, 539131). Protein concentration was measured using Pierce™ BCA Protein Assay Kit (Thermo Fisher Scientific, 23227). Equal amounts of protein lysates or cell conditional medium (normalized to cell numbers) were subjected to SDS gel electrophoresis, immunoblotted with primary antibodies (Anti-Collagen I antibody, ab34710; Anti-tubulin, Cell Signaling 2148)) and DyLight 680/800-conjugated secondary antibodies (DyLight 680-conjugated goat anti-rabbit IgG secondary antibody Thermo Fisher Scientific, 35569; DyLight 800-conjugated goat anti-mouse IgG secondary antibody Thermo Fisher Scientific, SA5-35521).
# To determine whether the identified potential inhibitors suppress the C-P4H1 activity in tissue culture, HS-578T cells were treated with Silodosin or Ticlopidine for 48 hours. Since collagen maturation and secretion was regulated by the C-P4H1, conditioned media were collected from control and Silodosin- or Ticlopidine-treated cells for western blot analysis.
# [6] = system: MDA-MB-231 cells; assay: 3D culture assay, invasive branching / invasive growth; assay type: cell-based; conditions: MDA-MB-231, 10 μM and 20 μM, 48 hours
# Protocol: as §2, §3, §4
# T1 sequence (P13674 18-534): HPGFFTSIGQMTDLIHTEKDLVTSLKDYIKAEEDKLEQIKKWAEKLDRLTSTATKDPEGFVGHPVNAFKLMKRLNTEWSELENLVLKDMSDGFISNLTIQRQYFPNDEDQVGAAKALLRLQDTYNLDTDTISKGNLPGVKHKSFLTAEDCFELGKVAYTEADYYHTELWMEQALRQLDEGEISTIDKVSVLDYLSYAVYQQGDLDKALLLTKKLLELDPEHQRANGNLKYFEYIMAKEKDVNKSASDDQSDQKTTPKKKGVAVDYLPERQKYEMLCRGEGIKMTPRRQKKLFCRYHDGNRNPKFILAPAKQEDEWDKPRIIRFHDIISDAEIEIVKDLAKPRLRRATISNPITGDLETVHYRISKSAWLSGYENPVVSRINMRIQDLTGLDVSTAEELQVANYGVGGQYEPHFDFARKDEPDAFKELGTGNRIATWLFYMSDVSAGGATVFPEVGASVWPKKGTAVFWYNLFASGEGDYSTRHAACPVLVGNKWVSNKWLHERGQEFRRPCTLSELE
# T1 sequence (P07237 18-508 partner): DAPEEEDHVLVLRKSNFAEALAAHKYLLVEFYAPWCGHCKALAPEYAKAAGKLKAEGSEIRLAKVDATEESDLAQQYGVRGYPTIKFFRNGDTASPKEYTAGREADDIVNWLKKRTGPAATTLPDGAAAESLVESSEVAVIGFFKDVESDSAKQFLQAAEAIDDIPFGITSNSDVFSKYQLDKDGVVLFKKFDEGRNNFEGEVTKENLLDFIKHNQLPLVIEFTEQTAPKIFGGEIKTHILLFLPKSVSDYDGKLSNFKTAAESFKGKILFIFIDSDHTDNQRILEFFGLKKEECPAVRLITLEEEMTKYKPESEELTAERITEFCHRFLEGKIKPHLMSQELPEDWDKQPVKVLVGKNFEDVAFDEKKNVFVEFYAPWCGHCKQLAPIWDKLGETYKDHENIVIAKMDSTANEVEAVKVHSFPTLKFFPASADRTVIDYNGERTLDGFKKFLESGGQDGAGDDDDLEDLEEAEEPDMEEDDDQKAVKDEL
"IC50 ([1]; 0.1 μM WT C-P4HA1 (FIG. 3E), read-out: IC50 of wild type C-P4H1 inhibition)","IC50 ([1]; C-P4H1 200 nM, preincubated 30 min at 4° C. (FIG. 3C), read-out: IC50 of C-P4H1 inhibition)",effect on the luminescence assay in the absence of C-P4H1 ([3]; listed as Silodocin),Structure (SMILES),inhibition of C-P4H1 activity (luminescence) [1],IC50 [2],effect on the luminescence assay in the absence of C-P4H1 [3],invasive branching structures in 3D culture [4],"kinetic property of C-P4H1 inhibition ([1]; dose curves, FIG. 4D and 4F)",protein levels of type I collagen in the conditioned media [5],invasive branching structures in 3D culture [6]
~40 µM,~20 µM,–,"CCOC(=O)c1ccc(O)c(O)c1 [DHB, ethyl-3,4-dihydroxybenzoic acid]",significantly reduced luminescence values,100 µM,little effect; also recorded: did not inhibit,–,–,–,–
–,–,did not inhibit,C[C@H](Cc1cc2c(c(C(N)=O)c1)N(CCCO)CC2)NCCOc1ccccc1OCC(F)(F)F [Silodosin],inhibited C-P4H1 activity in a dose-dependent manner,–,little effect,significantly reduced invasive branching structures,faster kinetic property compared to ticlopidine,reduced protein levels of type I collagen,significantly reduced invasive branching structures
